According to patent US4051237A, “Glycopeptide antibiotics Bu-2231 A and B and process for producing same” (priority 1975, dated 1977):

Test system: S. aureus Smith
Assay: In vivo activity in experimental mice infection
Conditions: Table 11
Description: The in vivo activity of Bu-2231 complex was evaluated in experimental mice infections against S. aureus Smith and E. coli NIHJ. Bleomycin was tested comparatively as a reference antibiotic.

Substance: Bleomycin [reference compound]
- PD50 (median protective dose) (S. aureus Smith infection, mice, sc): 2.5 mg/kg
- In vivo activity vs. S. aureus Smith infection (x/5 mice) (dose (sc) 0.13 mg/kg): 0/5
- In vivo activity vs. S. aureus Smith infection (x/5 mice) (dose (sc) 0.5 mg/kg): 1/5
- In vivo activity vs. S. aureus Smith infection (x/5 mice) (dose (sc) 2 mg/kg): 2/5
- In vivo activity vs. S. aureus Smith infection (x/5 mice) (dose (sc) 8 mg/kg): 4/5
